Assay results reported in patent publication US20240173332A1, “BENZO[…] TREATING OR PREVENTING RESPIRATORY SYNCYTIAL VIRUS INFECTION” (Pfizer Inc., priority 2021, published 2024).
Counter-ions that a name gives are not always drawn. Like-named read-outs stand apart in the source and are kept apart here.

Tests used:
Cell cytotoxicity CC50 = format: cell-based; details: human, Hep-G2 cells; mean of at least two experiments unless (n = 1)
RSV A2 = test: RSV plaque reduction assay in Hep-G2 cells; format: cell-based, respiratory syncytial virus (RSV); details: human respiratory syncytial virus, HepG2, 48 h, mean of at least two experiments
Experimental: Compounds were subjected to RSV plaque reduction assays according to the following protocol. Plaque EC50 and cell toxicity CC50 values are a mean of at least two experiments and figures are rounded to whole units.
Hep-G2 cells (ECACC, 85011430) were passaged in flasks and seeded in 24-well plates in DMEM containing antibiotics and supplemented with 10% FBS. During inoculation and subsequent incubation, cells were cultured in DMEM containing 2% FBS. 100 plaque forming unit/well of RSV (RSV A2 ECACC, 0709161v) was mixed with eight serial dilutions of compound. Subsequently, 100 μL of the virus/compound mixtures was added to confluent Hep-G2 cell monolayers. The cells and virus/compound mixtures were incubated at 37° C. in a humidified 5% CO2 incubator for 2 h prior to removal of the inoculum and addition of 1 mL of overlay (DMEM containing 2% FBS and 0.8% CMC) containing compound dilutions. The cells and were incubated at 37° C. in a humidified 5% CO2 incubator for 2 days.
Cells were washed with PBS before adding 75/25% v/v EtOH/MeOH, for 3 min. Fixative was removed and plates were washed with PBS. A pre-titrated amount of the primary antibody was added in 200 μL PBS/2% milk powder, and plates incubated for 90 min at 37° C. The plates were washed 3 times with PBS/0.05% Tween20 before addition of rabbit anti-goat horse radish peroxidase in 200 μL PBS/2% milk powder, and incubated for 1 h at 37° C. Following three wash steps with PBS/0.05% Tween20, 200 μL ready-to-use TrueBlue was added and plates were incubated at rt for 10-15 min before washing with water. After removal of water, plates were air-dried in the dark. Plates were scanned and analysed using the Immunospot S6 Macro analyser, which is equipped with BioSpot analysis software for counting immunostained plaques (virospots). Plaque counts were used to calculate % infection relative to the mean of the plaque count in the virus control wells for RSV. The EC50 value was calculated as 50% reduction in signal, respectively, by interpolation of inhibition curves fitted with a 4-parameter nonlinear regression with a variable slope in Dotmatics. Plaque EC50 and cell toxicity CC50 values are a mean of at least two experiments and figures are rounded to whole units.

[1] = Hep-G2 cells, RSV A2, 2 days, read-out: RSV A2 Plaque EC50

SMILES | CC50 (Cell cytotoxicity CC50) [µM] | EC50 (RSV A2; read-out: RSV A2 Plaque EC50, Hep-G2 cells, RSV A2, 2 days) [µM] | EC50 (RSV A2; [1]) [µM]
CC(O)c1ccc(-c2nn3cccnc3c2C(=O)N[C@H]2N=C(c3ccccc3)c3ccccc3NC2=O)c(F)c1 (single isomer, unassigned) [Example 16-1, 2-[2-Fluoro-4-[(1S*)-1-hydroxyethyl]phenyl]-N-[(3S)-2-oxo-5-phenyl-1,3-dihydro-1,4-benzodiazepin-3-yl]pyrazolo[1,5-a]pyrimidine-3-carboxamide] | > 2.5 | 0.0082 | 
CC(O)c1ccc(-c2nn3cccnc3c2C(=O)N[C@H]2N=C(c3ccccc3)c3cccc(F)c3NC2=O)c(F)c1 (single isomer, unassigned) [Example 17-1, 2-[2-Fluoro-4-[(1S*)-1-hydroxyethyl]phenyl]-N-[(3S)-9-fluoro-2-oxo-5-phenyl-1,3-dihydro-1,4-benzodiazepin-3-yl]pyrazolo[1,5-a]pyrimidine-3-carboxamide] | > 2.5 |  | 0.0055
CC(C)n1cc(-c2nn3cccnc3c2C(=O)N[C@H]2N=C(c3ccccc3)c3ccccc3NC2=O)cn1 [Example 5, N-[(3S)-2-oxo-5-phenyl-1,3-dihydro-1,4-benzodiazepin-3-yl]-2-(1-propan-2-ylpyrazol-4-yl)pyrazolo[1,5-a]pyrimidine-3-carboxamide] | > 25 |  | 0.066
CS(=O)(=O)c1ccc(-c2nn3cccnc3c2C(=O)N[C@H]2N=C(c3ccccc3)c3ccccc3NC2=O)c(F)c1 [Example 8, 2-(2-Fluoro-4-methylsulfonylphenyl)-N-[(3S)-2-oxo-5-phenyl-1,3-dihydro-1,4-benzodiazepin-3-yl]pyrazolo[1,5-a]pyrimidine-3-carboxamide] | > 25 |  | 0.013
O=C(N[C@H]1N=C(c2ccccc2)c2ccccc2NC1=O)c1c(-c2cc(CO)ccc2F)nn2cccnc12 [Example 9, 2-[2-Fluoro-5-(hydroxymethyl)phenyl]-N-[(3S)-2-oxo-5-phenyl-1,3-dihydro-1,4-benzodiazepin-3-yl]pyrazolo[1,5-a]pyrimidine-3-carboxamide] | > 25 |  | 0.06
O=C(N[C@H]1N=C(c2ccccc2)c2cccc(F)c2NC1=O)c1c(-c2cc(CO)ccc2F)nn2cccnc12 [Example 10, 2-[2-Fluoro-5-(hydroxymethyl)phenyl]-N-[(3S)-9-fluoro-2-oxo-5-phenyl-1,3-dihydro-1,4-benzodiazepin-3-yl]pyrazolo[1,5-a]pyrimidine-3-carboxamide] | > 20.2 |  | 0.025
O=C(N[C@H]1N=C(c2ccccc2)c2ccccc2NC1=O)c1c(-c2ccc(O)cc2F)nn2cccnc12 [Example 11, 2-(2-Fluoro-4-hydroxyphenyl)-N-[(3S)-2-oxo-5-phenyl-1,3-dihydro-1,4-benzodiazepin-3-yl]pyrazolo[1,5-a]pyrimidine-3-carboxamide] | > 25 |  | 0.047
O=C(N[C@H]1N=C(c2ccccc2)c2cccc(F)c2NC1=O)c1c(-c2ccc(O)cc2F)nn2cccnc12 [Example 12, 2-(2-Fluoro-4-hydroxyphenyl)-N-[(3S)-9-fluoro-2-oxo-5-phenyl-1,3-dihydro-1,4-benzodiazepin-3-yl]pyrazolo[1,5-a]pyrimidine-3-carboxamide] | > 25 |  | 0.016
CC(C)(O)Cc1ccc(-c2nn3cccnc3c2C(=O)N[C@H]2N=C(c3ccccc3)c3cccc(F)c3NC2=O)c(F)c1 [Example 14, 2-[2-Fluoro-4-(2-hydroxy-2-methylpropyl)phenyl]-N-[(3S)-9-fluoro-2-oxo-5-phenyl-1,3-dihydro-1,4-benzodiazepin-3-yl]pyrazolo[1,5-a]pyrimidine-3-carboxamide] | > 25 |  | 0.02
CC(C)(O)Cc1ccc(-c2nn3cccnc3c2C(=O)N[C@H]2N=C(c3ccccc3)c3ccccc3NC2=O)c(F)c1 [Example 15, 2-[2-Fluoro-4-(2-hydroxy-2-methylpropyl)phenyl]-N-[(3S)-2-oxo-5-phenyl-1,3-dihydro-1,4-benzodiazepin-3-yl]pyrazolo[1,5-a]pyrimidine-3-carboxamide] | > 25 |  | 0.032
CC(O)c1ccc(-c2nn3cccnc3c2C(=O)N[C@H]2N=C(c3ccccc3)c3ccccc3NC2=O)c(F)c1 (stereo partly drawn) [Example 16, 2-[2-Fluoro-4-(1-hydroxyethyl)phenyl]-N-[(3S)-2-oxo-5-phenyl-1,3-dihydro-1,4-benzodiazepin-3-yl]pyrazolo[1,5-a]pyrimidine-3-carboxamide] | > 25 |  | 0.0076
CC(O)c1ccc(-c2nn3cccnc3c2C(=O)N[C@H]2N=C(c3ccccc3)c3cccc(F)c3NC2=O)c(F)c1 (stereo partly drawn) [Example 17, 2-[2-Fluoro-4-(1-hydroxyethyl)phenyl]-N-[(3S)-9-fluoro-2-oxo-5-phenyl-1,3-dihydro-1,4-benzodiazepin-3-yl]pyrazolo[1,5-a]pyrimidine-3-carboxamide] | > 25 |  | 0.0069
CC(C)(O)c1ccc(-c2nn3cccnc3c2C(=O)N[C@H]2N=C(c3ccccc3)c3ccccc3NC2=O)c(F)c1 [Example 20, 2-[2-Fluoro-4-(2-hydroxypropan-2-yl)phenyl]-N-[(3S)-2-oxo-5-phenyl-1,3-dihydro-1,4-benzodiazepin-3-yl]pyrazolo[1,5-a]pyrimidine-3-carboxamide] | > 25 |  | 0.0087
O=C(N[C@H]1N=C(c2ccccc2)c2ccccc2NC1=O)c1c(-c2ccc(CCO)cc2F)nn2cccnc12 [Example 21, 2-[2-Fluoro-4-(2-hydroxyethyl)phenyl]-N-[(3S)-2-oxo-5-phenyl-1,3-dihydro-1,4-benzodiazepin-3-yl]pyrazolo[1,5-a]pyrimidine-3-carboxamide] | > 25 |  | 0.042
O=C(N[C@H]1N=C(c2ccccc2)c2cccc(F)c2NC1=O)c1c(-c2ccc(CCO)cc2F)nn2cccnc12 [Example 22, 2-[2-Fluoro-4-(2-hydroxyethyl)phenyl]-N-[(3S)-9-fluoro-2-oxo-5-phenyl-1,3-dihydro-1,4-benzodiazepin-3-yl]pyrazolo[1,5-a]pyrimidine-3-carboxamide] | > 25 |  | 0.025
CCS(=O)(=O)c1ccc(-c2nn3cccnc3c2C(=O)N[C@H]2N=C(c3ccccc3)c3cccc(F)c3NC2=O)c(F)c1 [Example 23, 2-(4-Ethylsulfonyl-2-fluorophenyl)-N-[(3S)-9-fluoro-2-oxo-5-phenyl-1,3-dihydro-1,4-benzodiazepin-3-yl]pyrazolo[1,5-a]pyrimidine-3-carboxamide] | > 25 |  | 0.003
NS(=O)(=O)c1ccc(-c2nn3cccnc3c2C(=O)N[C@H]2N=C(c3ccccc3)c3cccc(F)c3NC2=O)c(F)c1 [Example 24, N-[(3S)-9-Fluoro-2-oxo-5-phenyl-1,3-dihydro-1,4-benzodiazepin-3-yl]-2-(2-fluoro-4-sulfamoylphenyl)pyrazolo[1,5-a]pyrimidine-3-carboxamide] | > 25 |  | 0.049
CN(C)S(=O)(=O)c1ccc(-c2nn3cccnc3c2C(=O)N[C@H]2N=C(c3ccccc3)c3cccc(F)c3NC2=O)c(F)c1 [Example 25, 2-[4-(Dimethylsulfamoyl)-2-fluorophenyl]-N-[(3S)-9-fluoro-2-oxo-5-phenyl-1,3-dihydro-1,4-benzodiazepin-3-yl]pyrazolo[1,5-a]pyrimidine-3-carboxamide] | > 25 |  | 0.0012
CS(=O)(=O)c1ccc(F)c(-c2nn3cccnc3c2C(=O)N[C@H]2N=C(c3ccccc3)c3cccc(F)c3NC2=O)c1 [Example 26, 2-(2-Fluoro-5-methylsulfonylphenyl)-N-[(3S)-9-fluoro-2-oxo-5-phenyl-1,3-dihydro-1,4-benzodiazepin-3-yl]pyrazolo[1,5-a]pyrimidine-3-carboxamide] | > 25 |  | 0.061
NC(=O)c1ccc(-c2nn3cccnc3c2C(=O)N[C@H]2N=C(c3ccccc3)c3cccc(F)c3NC2=O)c(F)c1 [Example 27, 2-(4-Carbamoyl-2-fluorophenyl)-N-[(3S)-9-fluoro-2-oxo-5-phenyl-1,3-dihydro-1,4-benzodiazepin-3-yl]pyrazolo[1,5-a]pyrimidine-3-carboxamide] | > 25 |  | 0.049
CC(C)[C@H](N)C(=O)OCc1ccc(-c2nn3cccnc3c2C(=O)N[C@H]2N=C(c3ccccc3)c3ccccc3NC2=O)c(F)c1 [Example 30, [3-Fluoro-4-(3-{[(3S)-2-oxo-5-phenyl-1,3-dihydro-1,4-benzodiazepin-3-yl]carbamoyl}pyrazolo[1,5-a]pyrimidin-2-yl)phenyl]methyl (2S)-2-amino-3-methylbutanoate hydrochloride] | > 25 |  | 0.044
